Measured values: paper PMC10252594 (Cancers, 2023)
Where “and” joins values, the source holds several entries; their conditions need not be identical. Identical values can stand only once.

Tested on: LAPC-4 xenografts
Experiment: Fatty acid determination (GC-FID) in LAPC-4 xenograft experiment
Format: in vivo, mice
Settings: LAPC-4 tumor, 10 mg/kg PO
Method: […] The fatty acid profile was next determined by gas chromatography (GC), coupled with a flame ionization detector (FID), using phosphatidylcholine C21:0 (Avanti Polar Lipids) as an internal standard. The GC model 5890 was from Agilent Technologies (Mississauga, ON, Canada). The capillary column used was a HP-88 (100 m × 0.25 mm, […], Agilent Technologies), and the carrier gas was helium at 1.5 mL/min. A total of 56 fatty acids were identified according to their retention time, using fatty acid mixtures as standards.

## C#C[C@]1(O)CC[C@H]2[C@@H]3CCc4cc(OC)c(N5CCN(C(=O)[C@@H]6CCCN6C(=O)c6ccc7ccccc7n6)CC5)cc4[C@H]3CC[C@@]21C [RM-581]
28 days, Table S1
  Dimethoxyoctadecenoic acid (9c) w9 18:1, FA RM-581: 0.07 mg/g
  Dimethoxyoctadecenoic acid (9c) w9 18:1, FA RM-581 % of total: 0.29%
  Elaidic acid (9t) w9 18:1, FA RM-581: 0 mg/g
  Elaidic acid (9t) w9 18:1, FA RM-581 % of total: 0%
  Erucic acid w9 22:1, FA RM-581: 0.025 mg/g
  Erucic acid w9 22:1, FA RM-581 % of total: 0.10%
  FA (1c) w14 15:1, FA RM-581: 0 mg/g
  FA (1c) w14 15:1, FA RM-581 % of total: 0%
  FA (5c) w10 15:1, FA RM-581: 0 mg/g
  FA (5c) w10 15:1, FA RM-581 % of total: 0%
  FA (5t) w10 15:1, FA RM-581: 0 mg/g
  FA (5t) w10 15:1, FA RM-581 % of total: 0%
  FA (7c) w10 17:1, FA RM-581: 0.05 mg/g
  FA (7c) w10 17:1, FA RM-581 % of total: 0.20%
  FA (7t) w10 17:1, FA RM-581: 0.02 mg/g
  FA (7t) w10 17:1, FA RM-581 % of total: 0.09%
  FA (8c11c14c17c) w3 20:4, FA RM-581: 0.04 mg/g
  FA (8c11c14c17c) w3 20:4, FA RM-581 % of total: 0.16%
  FA (8c) w12 20:1, FA RM-581: 0 mg/g
  FA (8c) w12 20:1, FA RM-581 % of total: 0%
  FA (9c12t) w6 18:2, FA RM-581: 0.02 mg/g
  FA (9c12t) w6 18:2, FA RM-581 % of total: 0.09%
  FA (9t12c) w6 18:2, FA RM-581: 0 mg/g
  FA (9t12c) w6 18:2, FA RM-581 % of total: 0%
  FA (9t12t15t) w3 18:3, FA RM-581: 0.01 mg/g
  FA (9t12t15t) w3 18:3, FA RM-581 % of total: 0.03%
  FA (9t) w5 14:1, FA RM-581: 0.01 mg/g
  FA (9t) w5 14:1, FA RM-581 % of total: 0.03%
  FA (9t) w13 22:1, FA RM-581: 0 mg/g
  FA (9t) w13 22:1, FA RM-581 % of total: 0%
  FA (11c14c17c) w3 20:3, FA RM-581: 0 mg/g
  FA (11c14c17c) w3 20:3, FA RM-581 % of total: 0%
  FA (11c14c) w6 20:2, FA RM-581: 0.08 mg/g
  FA (11c14c) w6 20:2, FA RM-581 % of total: 0.34%
  FA (12c) w6 18:1, FA RM-581: 0 mg/g
  FA (12c) w6 18:1, FA RM-581 % of total: 0%
  FA (13c16c19c) w3 22:3, FA RM-581: 0 mg/g
  FA (13c16c19c) w3 22:3, FA RM-581 % of total: 0%
  FA (13c16c) w6 22:2, FA RM-581: 0.01 mg/g
  FA (13c16c) w6 22:2, FA RM-581 % of total: 0.04%
  FA (13c) w5 18:1, FA RM-581: 0.02 mg/g
  FA (13c) w5 18:1, FA RM-581 % of total: 0.07%
  Gamma-linolenic acid (6c9c12c) w6 18:3, FA RM-581: 0.05 mg/g
  Gamma-linolenic acid (6c9c12c) w6 18:3, FA RM-581 % of total: 0.19%
  Gondoic acid (11c) w9 20:1, FA RM-581: 0.08 mg/g
  Gondoic acid (11c) w9 20:1, FA RM-581 % of total: 0.32%
  Isobranched 17:0, FA RM-581: 0.02 mg/g
  Isobranched 17:0, FA RM-581 % of total: 0.08%
  Lauric acid 12:0, FA RM-581: 0.02 mg/g
  Lauric acid 12:0, FA RM-581 % of total: 0.10%
  Linolelaidic acid (9t12t) w6 18:2, FA RM-581: 0.03 mg/g
  Linolelaidic acid (9t12t) w6 18:2, FA RM-581 % of total: 0.14%
  Myristoleic acid (9c) w5 14:1, FA RM-581: 0.02 mg/g
  Myristoleic acid (9c) w5 14:1, FA RM-581 % of total: 0.06%
  Palmitelaidic acid (9t) w1 16:1, FA RM-581: 0 mg/g
  Palmitelaidic acid (9t) w1 16:1, FA RM-581 % of total: 0%
  Pentadecanoic acid 15:0, FA RM-581: 0.04 mg/g
  Pentadecanoic acid 15:0, FA RM-581 % of total: 0.17%
  Petroselaidic acid (6t) w12 18:1, FA RM-581: 0 mg/g
  Petroselaidic acid (6t) w12 18:1, FA RM-581 % of total: 0%
  Petroselinic acid (7c-n11/6c-n12) w11/12 18:1, FA RM-581: 0 mg/g
  Petroselinic acid (7c-n11/6c-n12) w11/12 18:1, FA RM-581 % of total: 0%
  Stearidonic acid (6c9c12c15c) w3 18:4, FA RM-581: 0 mg/g
  Stearidonic acid (6c9c12c15c) w3 18:4, FA RM-581 % of total: 0%
  Timnodonic acid (5c8c11c14c17c) w3 20:5, FA RM-581: 0.025 mg/g
  Timnodonic acid (5c8c11c14c17c) w3 20:5, FA RM-581 % of total: 0.10%
  Trans-vaccenic acid (11t) w7 18:1, FA RM-581: 0.03 mg/g
  Trans-vaccenic acid (11t) w7 18:1, FA RM-581 % of total: 0.13%
10 mg/kg
  increase in linoleic acid level inside the tumors: 1.59 mg/g and ~ 5.7 mM
  increase in oleic acid level inside the tumors: 1.26 mg/g and ~ 4.5 mM
